Test systems include CAKI-1 renal; COLO 205 colon; HL-60(TB) leukemia; HS 578T breast; IGROV1 ovarian; K-562 leukemia; PC-3 prostate; SN12C renal; SW-620 colon; T-47D breast.
Common to all, as to test: growth of human tumour cells (NCI), 48 h

SMILES strings stand for the structures.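 Cells were grown in 96-well plates and exposed to each compound for 48 hours at five concentrations; endpoints were interpolated linearly between bracketing concentrations, or set to the highest concentration if not reached. GI50 is the concentration that inhibits growth by half. TGI: concentration producing complete growth inhibition.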

Turning to `O=C(/C=C/c1ccccc1)Nc1ncc(Cc2ccccc2)s1`, the GI50 in the test with CAKI-1 renal was 90.2 nM; in the test on COLO 205 colon, 288 nM; in the test with HL-60(TB) leukemia it was 212 nM; in the test on HS 578T breast, 287 nM; with IGROV1 ovarian, 491 nM; in the test with K-562 leukemia it was 62.4 nM. In addition, the GI50 in the test on PC-3 prostate was 275 nM; in the test with SN12C renal it was 597 nM; with SW-620 colon, 144 nM; with T-47D breast, 413 nM. In addition, the TGI was over 50200 nM in the test with CAKI-1 renal; 2130 nM in the test on COLO 205 colon; 609 nM with HL-60(TB) leukemia; 20800 nM with HS 578T breast; over 64500 nM with IGROV1 ovarian; over 37100 nM in the test on K-562 leukemia. Further, the TGI with PC-3 prostate was over 100000 nM; in the test with SN12C renal, over 52000 nM; with SW-620 colon, over 100000 nM; in the test with T-47D breast, over 100000 nM.
For `C/C(=N\N)C(CN1CCCCC1)C(c1ccccc1)c1c(O)c2ccccc2oc1=O` (stereo not drawn), the TGI in the test with CAKI-1 renal, in the test on COLO 205 colon, in the test on HL-60(TB) leukemia, in the test on HS 578T breast, in the test with IGROV1 ovarian and in the test on K-562 leukemia was over 100000 nM throughout. In addition, the TGI with PC-3 prostate, in the test with SN12C renal, in the test with SW-620 colon and in the test with T-47D breast was over 100000 nM in each case.
For `COc1cc(/C=C/C(=O)c2ccc(F)cc2)ccc1OCCCCOc1cc2c(cc1OC)C(=O)N1CCCC1C=N2` (stereo not drawn), the GI50 in the test with CAKI-1 renal is 1120 nM; in the test on COLO 205 colon, 2110 nM; in the test with HL-60(TB) leukemia, 477 nM; in the test with HS 578T breast, 336 nM; in the test with IGROV1 ovarian, 1830 nM; with K-562 leukemia it was 620 nM. Further, the GI50 in the test on PC-3 prostate was 923 nM; in the test on SN12C renal, 1680 nM; in the test with SW-620 colon, 481 nM; in the test with T-47D breast, 1420 nM. Also, the TGI in the test on CAKI-1 renal stood at 25600 nM; with COLO 205 colon, 9190 nM; in the test on HL-60(TB) leukemia, 1210 nM; in the test on HS 578T breast, 9360 nM; with IGROV1 ovarian, 3590 nM; in the test on K-562 leukemia, 4050 nM. Besides, the TGI is 12800 nM with PC-3 prostate, 15900 nM with SN12C renal and over 33200 nM with T-47D breast.
Turning to `CCN(CC)c1ccc(CNc2cc(C)nc3ccc(OC)cc23)cc1`, the GI50 in the test with CAKI-1 renal was 1890 nM; with COLO 205 colon it was 1310 nM; in the test on HL-60(TB) leukemia it was 1600 nM; with HS 578T breast it was 2320 nM; in the test on IGROV1 ovarian, 4050 nM; in the test on K-562 leukemia, 1370 nM. For the same molecule, the GI50 in the test with PC-3 prostate is 2820 nM; in the test on SN12C renal it was 5330 nM; with SW-620 colon, 1750 nM; in the test with T-47D breast, 1960 nM. Also, the TGI in the test on CAKI-1 renal came out at 10500 nM; with COLO 205 colon it was 2760 nM; in the test with HL-60(TB) leukemia, 4230 nM; in the test with HS 578T breast, 6730 nM; in the test on IGROV1 ovarian, 19200 nM; in the test on K-562 leukemia, 4340 nM. Further, the TGI in the test with PC-3 prostate was 13100 nM; in the test with SN12C renal, 20600 nM; in the test on SW-620 colon, 3470 nM; in the test with T-47D breast it was 4610 nM.
For the molecule `COc1ccc(C2CC(c3ccc4ccccc4c3)=NN2/C=C2\SC(=S)N(NC(=O)Cc3ccccc3Nc3c(Cl)cccc3Cl)C2=O)cc1` (stereo not drawn), the GI50 was 392 nM with CAKI-1 renal; 1890 nM in the test with COLO 205 colon; 404 nM in the test on HL-60(TB) leukemia; 415 nM in the test on HS 578T breast; 588 nM with IGROV1 ovarian; 402 nM in the test on K-562 leukemia. In addition, the GI50 with PC-3 prostate was 714 nM; with SN12C renal it was 647 nM; in the test on SW-620 colon, 416 nM; with T-47D breast, 788 nM. Moreover, the TGI with CAKI-1 renal is over 40000 nM; in the test on COLO 205 colon it was over 100000 nM; in the test with HL-60(TB) leukemia, 2890 nM; with HS 578T breast, over 37600 nM; with IGROV1 ovarian it was over 42000 nM; with K-562 leukemia, over 100000 nM. Also, the TGI in the test on PC-3 prostate is over 54000 nM; in the test with SN12C renal, over 48900 nM; in the test with SW-620 colon it was over 52700 nM; with T-47D breast, 98800 nM.
Regarding `C/C(=N\NC(=O)c1cccc(S(=O)(=O)N2CCN(C)CC2)c1)c1cc(Cl)ccc1O`, the GI50 was 567 nM in the test on CAKI-1 renal; 387 nM in the test on COLO 205 colon; 717 nM with HL-60(TB) leukemia; 4540 nM in the test on HS 578T breast; 677 nM in the test with IGROV1 ovarian; 824 nM in the test on K-562 leukemia. The GI50 was 1180 nM in the test on PC-3 prostate, 1190 nM in the test with SN12C renal, 705 nM with SW-620 colon and 634 nM in the test with T-47D breast. Further, the TGI in the test on CAKI-1 renal was 27500 nM; with COLO 205 colon, 15300 nM; with HL-60(TB) leukemia it was 17100 nM; with HS 578T breast, over 74800 nM; in the test on IGROV1 ovarian, over 66500 nM; in the test with K-562 leukemia, over 52800 nM. Moreover, the TGI in the test with PC-3 prostate was over 100000 nM; in the test with SN12C renal, over 100000 nM; with SW-620 colon it was over 94900 nM; with T-47D breast it was over 100000 nM.
In the case of `Cc1ccccc1NC(=O)N/C(N)=N/c1nc(C)c(C)s1`, the GI50 in the test with CAKI-1 renal was 197 nM; in the test on COLO 205 colon it was 295 nM; in the test with HL-60(TB) leukemia, 235 nM; in the test on HS 578T breast it was 488 nM; with IGROV1 ovarian, 350 nM; in the test with K-562 leukemia, 42.9 nM. Further, the GI50 was 395 nM in the test on PC-3 prostate, 1230 nM in the test with SN12C renal, 163 nM in the test on SW-620 colon and 448 nM with T-47D breast. In addition, the TGI was 97100 nM in the test on CAKI-1 renal; over 100000 nM in the test with HL-60(TB) leukemia; over 100000 nM in the test on HS 578T breast; over 100000 nM in the test on IGROV1 ovarian; over 100000 nM with K-562 leukemia; over 100000 nM in the test on PC-3 prostate. Besides, the TGI in the test with SN12C renal, with SW-620 colon and with T-47D breast was over 100000 nM in each case.
For the molecule `O=C(CC(O)c1cccnc1)CC(O)c1cccnc1` (stereo not drawn), the TGI in the test with CAKI-1 renal is 35900 nM; in the test with COLO 205 colon, 29000 nM; in the test with HL-60(TB) leukemia it was over 100000 nM; in the test on HS 578T breast, over 100000 nM; with IGROV1 ovarian, 29900 nM; with K-562 leukemia, over 51500 nM. Besides, the TGI in the test with PC-3 prostate is 42900 nM; in the test with SN12C renal it was 38800 nM; in the test with SW-620 colon it was 19600 nM; in the test on T-47D breast, over 73500 nM.

(Values after PubChem BioAssay (NCI).)
